Molecules are shown by their SMILES. Like-named read-outs stand apart in the source and are kept apart here.

The assay deals with T1, GK (glucokinase, residues 12-465) (Homo sapiens, UniProt P35557).
T1 construct: I.D. No. 1 corresponds to residues 12-465 of glucokinase; made in house; host or cells: DH10b-T1r E. coli
T1 sequence (P35557 with tags, fused parts or gaps isoform P35557-2): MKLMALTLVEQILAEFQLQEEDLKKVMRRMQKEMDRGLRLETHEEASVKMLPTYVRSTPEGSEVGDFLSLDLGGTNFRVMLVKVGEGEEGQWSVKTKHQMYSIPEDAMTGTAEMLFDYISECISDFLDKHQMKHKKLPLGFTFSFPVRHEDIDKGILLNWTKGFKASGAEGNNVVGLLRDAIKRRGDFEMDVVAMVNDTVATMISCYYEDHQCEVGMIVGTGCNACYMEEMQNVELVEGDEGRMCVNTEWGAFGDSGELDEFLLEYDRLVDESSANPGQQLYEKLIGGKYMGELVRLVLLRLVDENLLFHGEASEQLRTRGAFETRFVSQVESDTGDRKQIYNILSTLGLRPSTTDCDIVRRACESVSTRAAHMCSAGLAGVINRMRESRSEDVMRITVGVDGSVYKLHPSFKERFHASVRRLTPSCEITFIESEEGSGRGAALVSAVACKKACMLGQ
Description: enzymatic glucokinase activity assay (ATP consumption, KinaseGlo luminescence). As to conditions: 5 μM ATP, 5 mM Glucose, reported as bins; for EC50: Kact = concentration that displays 50% of the maximal increase in GK activity, 60 min, room temperature, read-out: pKact. Type of assay: biochemical. The text has this: The activity of compounds as glucokinase activators may be assayed in vitro, in vivo or in a cell line. Provided below is an enzymatic glucokinase activity assay.
Purified glucokinase may be obtained as follows. […] SEQ.
The expression of recombinant glucokinase protein may be carried out by transformation and growth of DH10b-T1r E. coli cells incorporating the (pFLAG-CTC) plasmid in LB media. Protein expression can be induced in this system by the addition of IPTG to the culture medium.
Recombinant protein may be isolated from cellular extracts by passage over Sepharose Q Fast Flow resin (Pharmacia). This partially purified GK extract may then be further purified by a second passage over Poros HQ10 (Applied Biosystems). The purity of GK may be determined on denaturing SDS-PAGE gel. Purified GK may then be concentrated to a final concentration of 20.0 mg/ml. After flash freezing in liquid nitrogen, the proteins can be stored at −78° C. in a buffer containing 25 mM TRIS-HCl pH 7.6, 50 mM NaCl, and 0.5 mM TCEP.
The activation properties of compounds for GK may be determined using a black 384-well-plate format under the following reaction conditions: 25 mM Hepes pH 7.2, 25 mM NaCl, 10 mM MgCl2, 0.01% Brij35, 1 mM DTT, 5 μM ATP, 5 mM Glucose 2% DMSO. The amount of ATP consumed may be determined quantitatively by addition of equal volume of luciferase reagent (luciferase+beetle luciferin—KinaseGlo Luminescent Kinase Assay kit from Promega). The luminescence intensity may be measured by using the Analyst HT from LJL Biosystems.
The reaction mixture may then be incubated at room temperature for 60 min, and quenched and developed by addition of 10 μL of luciferase reagent. Luminescence intensities of the resulting reaction mixtures may be measured after a 10 min incubation at room temperature. The luminescence intensity may be measured by using the Analyst HT from LJL Biosystems.
pKact and % ACTmax values may be calculated by non-linear curve fitting of the compound concentrations and luminescence intensities to a standard inhibition/activation equation.
Background: In Kinase-Glo more light means more ATP remaining.

Setting [1] is: calculated maximal gain in GK enzyme activity at a saturating concentration of the compound, read-out: % ACTmax.

Consider `O=C(Nc1ncc(Cl)s1)[C@H](CC1CCOCC1)n1ncc2cc(S(=O)(=O)C3CC3)ccc21` [Compound 48, (S)-N-(5-chlorothiazol-2-yl)-2-(5-(cyclopropylsulfonyl)-1H-indazol-1-yl)-3-(tetrahydro-2H-pyran-4-yl)propanamide], for which the EC50 was in the range of 0.398 to 1.26 µM. Further, the Emax under setting [1] was at least 111%.

For `O=C(O)c1cnc(NC(=O)C(CC2CCCC2)n2cc(S(=O)(=O)C3CC3)cn2)s1` (stereo not shown) [Compound 7, 2-(3-cyclopentyl-2-(4-(cyclopropylsulfonyl)-1H-pyrazol-1-yl)propanamido)thiazole-5-carboxylic Acid], the EC50 lay in the range of 3.98 to 12.6 µM. In addition, the Emax under setting [1] is at most 90%.

On to `O=C(Nc1ncc(F)s1)[C@@H](CC1CCOCC1)n1ncc2c(S(=O)(=O)C3CC3)cccc21` [Compound 68, (R)-2-(4-(cyclopropylsulfonyl)-1H-indazol-1-yl)-N-(5-fluorothiazol-2-yl)-3-(tetrahydro-2H-pyran-4-yl)propanamide], for which the EC50 lay in the range of 3.98 to 12.6 µM. Moreover, under setting [1], the Emax is 101 to 105%.

For `Cc1nn(C(CC2CCOCC2)C(=O)Nc2ncc(F)s2)c(C)c1S(=O)(=O)C1CC1` (stereo not shown) [Compound 27, 2-(4-(cyclopropylsulfonyl)-3,5-dimethyl-1H-pyrazol-1-yl)-N-(5-fluorothiazol-2-yl)-3-(tetrahydro-2H-pyran-4-yl)propanamide], the EC50 is 1.58 to 3.16 µM. Also, the Emax under setting [1] is at most 90%.

On to `COc1cc(S(=O)(=O)C2CC2)c2cnn(C(CC3CCOCC3)C(=O)Nc3ccn(C)n3)c2c1` (stereo not shown) [Compound 83, 2-(4-(cyclopropylsulfonyl)-6-methoxy-1H-indazol-1-yl)-N-(1-methyl-1H-pyrazol-3-yl)-3-(tetrahydro-2H-pyran-4-yl)propanamide], for which the EC50 was 3.98 to 12.6 µM. Moreover, under setting [1], the Emax was at most 90%.

As for `O=C1CC[C@H](C[C@H](C(=O)Nc2cnccn2)n2ncc3c(S(=O)(=O)C4CC4)cccc32)C1` [Compound 75, (R)-2-(4-(cyclopropylsulfonyl)-1H-indazol-1-yl)-3-((R)-3-oxocyclopentyl)-N-(pyrazin-2-yl)propanamide], the EC50 was 0.398 to 1.26 µM. Also, the Emax under setting [1] is 90 to 100%.

On to `O=C(Nc1ncc(F)s1)C(CC1CCOCC1)n1ncc2c(S(=O)(=O)C3CC3)c(Cl)ccc21` (stereo not shown) [Compound 22, 2-(5-chloro-4-(cyclopropylsulfonyl)-1H-indazol-1-yl)-N-(5-fluorothiazol-2-yl)-3-(tetrahydro-2H-pyran-4-yl)propanamide], for which the EC50 was at most 0.316 µM. For the same compound, the Emax under setting [1] is at least 111%.

On to `O=C(Nc1ncc(Cl)s1)[C@@H](CC1CCOCC1)n1cc(S(=O)(=O)C2CCCC2)cn1` [Compound 58, (R)-N-(5-chlorothiazol-2-yl)-2-(4-(cyclopentylsulfonyl)-1H-pyrazol-1-yl)-3-(tetrahydro-2H-pyran-4-yl)propanamide], for which the EC50 was at least 15.8 µM. Under setting [1], the Emax was 101 to 105%.

In the case of `COc1cc(S(=O)(=O)C2CC2)c2cn(C(CC3CCOCC3)C(=O)Nc3ncc(F)s3)nc2c1` (stereo not shown) [Compound 73, 2-(4-(cyclopropylsulfonyl)-6-methoxy-2H-indazol-2-yl)-N-(5-fluorothiazol-2-yl)-3-(tetrahydro-2H-pyran-4-yl)propanamide], the EC50 is at least 15.8 µM. Also, the Emax under setting [1] was 90 to 100%.

For the compound `O=C(Nc1ncc(Cl)s1)[C@@H](CC1CCOCC1)n1cc(S(=O)(=O)C2CC2)cn1` [Compound 40, (R)-N-(5-chlorothiazol-2-yl)-2-(4-(cyclopropylsulfonyl)-1H-pyrazol-1-yl)-3-(tetrahydro-2H-pyran-4-yl)propanamide], the EC50 was at least 15.8 µM. In addition, the Emax under setting [1] was at most 90%.

On to `Cn1ccc(NC(=O)[C@@H](CC2CCOCC2)n2ncc3c(S(=O)(=O)C4CC4)cc(C#N)cc32)n1` [Compound 106, (R)-2-(6-cyano-4-(cyclopropylsulfonyl)-1H-indazol-1-yl)-N-(1-methyl-1H-pyrazol-3-yl)-3-(tetrahydro-2H-pyran-4-yl)propanamide], for which the EC50 was at least 15.8 µM. Moreover, the Emax under setting [1] was 90 to 100%.

Turning to `O=C(Nc1ncc(F)s1)C(CC1CCOCC1)n1ncc2c(S(=O)(=O)C3CC3)cc(O)cc21` (stereo not shown) [Compound 130, 2-(4-(cyclopropylsulfonyl)-6-hydroxy-1H-indazol-1-yl)-N-(5-fluorothiazol-2-yl)-3-(tetrahydro-2H-pyran-4-yl)propanamide], the EC50 is at most 0.316 µM. Moreover, the Emax under setting [1] is 101 to 105%.

On to `COc1ccc2nc(NC(=O)C(CC3CCOCC3)n3cc(S(=O)(=O)C4CC4)cn3)sc2n1` (stereo not shown) [Compound 24, 2-(4-(cyclopropylsulfonyl)-1H-pyrazol-1-yl)-N-(5-methoxythiazolo[5,4-b]pyridin-2-yl)-3-(tetrahydro-2H-pyran-4-yl)propanamide], for which the EC50 is at least 15.8 µM. For the same compound, under setting [1], the Emax is at most 90%.

As for `Nc1cc(S(=O)(=O)C2CC2)c2cnn(C(CC3CCOCC3)C(=O)Nc3cnccn3)c2n1` (stereo not shown) [Compound 96, 2-(6-amino-4-(cyclopropylsulfonyl)-1H-pyrazolo[3,4-b]pyridin-1-yl)-N-(pyrazin-2-yl)-3-(tetrahydro-2H-pyran-4-yl)propanamide], the EC50 lay in the range of 0.398 to 1.26 µM. Also, the Emax under setting [1] was 101 to 105%.

Regarding `O=C(Nc1ncc(Cl)s1)C(CC1CCOCC1)n1ncc2cc(S(=O)(=O)C3CC3)ccc21` (racemic) [Compound 10, N-(5-chlorothiazol-2-yl)-2-(5-(cyclopropylsulfonyl)-1H-indazol-1-yl)-3-(tetrahydro-2H-pyran-4-yl)propanamide], the EC50 fell in the range of 1.58 to 3.16 µM. Moreover, under setting [1], the Emax is at least 111%.

In the case of `Cc1ccc(NC(=O)C(CC2CCOCC2)n2ncc3c(S(=O)(=O)C4CC4)cccc32)nn1` (stereo not shown) [Compound 116, 2-(4-(cyclopropylsulfonyl)-1H-indazol-1-yl)-N-(6-methylpyridazin-3-yl)-3-(tetrahydro-2H-pyran-4-yl)propanamide], the EC50 lay in the range of 3.98 to 12.6 µM. Moreover, under setting [1], the Emax is at most 90%.

Regarding `O=C(Nc1cnccn1)[C@H](CC1CCOCC1)n1ncc2c(S(=O)(=O)C3CC3)cncc21` [Compound 171, (S)-2-(4-(cyclopropylsulfonyl)-1H-pyrazolo[3,4-c]pyridin-1-yl)-N-(pyrazin-2-yl)-3-(tetrahydro-2H-pyran-4-yl)propanamide], the EC50 lay within 1.58 to 3.16 µM. In addition, the Emax (read-out: % ACTmax, calculated maximal gain in GK enzyme activity at a saturating concentration of the compound) is 106 to 110%.

With `O=C(Nc1ncc(Cl)s1)C(CC1CCOCC1)n1ncc2ccc(S(=O)(=O)C3CC3)cc21` (stereo not shown) [Compound 60, N-(5-chlorothiazol-2-yl)-2-(6-(cyclopropylsulfonyl)-1H-indazol-1-yl)-3-(tetrahydro-2H-pyran-4-yl)propanamide], the EC50 was at least 15.8 µM. Besides, the Emax under setting [1] is at most 90%.

As to `O=C(Nc1ccc(Cl)cn1)C(CC1CCOCC1)n1cc(S(=O)(=O)C2CC2)cn1` (stereo not shown) [Compound 45, N-(5-chloropyridin-2-yl)-2-(4-(cyclopropylsulfonyl)-1H-pyrazol-1-yl)-3-(tetrahydro-2H-pyran-4-yl)propanamide], the EC50 fell in the range of 3.98 to 12.6 µM. Also, under setting [1], the Emax was at least 111%.

Turning to `Cn1ccc(NC(=O)C(CC2CCOCC2)n2ncc3c(S(=O)(=O)C4CC4)cc(F)cc32)n1` (stereo not shown) [Compound 104, 2-(4-(cyclopropylsulfonyl)-6-fluoro-1H-indazol-1-yl)-N-(1-methyl-1H-pyrazol-3-yl)-3-(tetrahydro-2H-pyran-4-yl)propanamide], the EC50 was in the range of 1.58 to 3.16 µM. Further, the Emax under setting [1] is 90 to 100%.

Values taken from patent US8563730B2, “Pyrazole and fused pyrazole glucokinase activators” (Takeda San Diego, Inc., priority 2008, dated 2013).
